Measured values as given in patent US20250281380A1, “Skincare Formulation for Multi-Modal Reduction of Acetylcholine Concentration and Activity” (JAMRM, LLC, priority 2021, published 2025).

System: ACh release, MatTek FT full-thickness model of human skin (human epidermal keratinocytes and human dermal fibroblasts)
Assay: MatTek FT tissue model, ACh concentration in the tissue culture media
Type: cell-based
Text: The MatTek FT™ tissue model was used to determine whether treatment with the test formulation would impact ACh release in vitro. The MatTek FT™ tissue model is a three-dimensional, full-thickness model of human skin formed from cultured human epidermal keratinocytes and human dermal fibroblasts. […] The MatTek FT™ tissue model allows for the performance of preclinical studies to evaluate mechanisms of action for skincare products.
A first untreated tissue model served as a control sample and was maintained in a tissue culture media. A second tissue model was maintained in a tissue culture media and treated daily with the test formulation. A third tissue model was maintained in a tissue culture media and exposed to Neostigmine, an acetylcholinesterase inhibitor that prevents the breakdown of ACh in the tissue culture media. A fourth tissue model was maintained in a tissue culture media, treated daily with the test formulation, and exposed to Neostigmine. The amount of ACh created by each of the tissue models was determined by measuring the ACh concentration in the tissue culture media. The results can be seen in FIG. 1.

SMILES: CN(C)C(=O)Oc1cccc([N+](C)(C)C)c1 [Neostigmine]
- accumulation of ACh (ACh concentration in tissue culture media) (FIG. 1, tissue model exposed to Neostigmine alone (third tissue model), time not stated): about 200 picograms per ml of solution
- ACh concentration at 72 hours, in words, effect of presence of neostigmine (FIG. 2, 72 hours, neostigmine in the untreated tissue model): relatively higher concentrations of ACh
